Counter-ions that a name gives are not always drawn. ± gives the standard deviation of the averaged measurements.
Tested on: HepaRG
Assay: LDH release cytotoxicity, % of total lysis control; higher = more cytotoxic
Conditions: 48 h
How it was run: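 Single-lot HepaRG cells in collagen I-coated 96-well plates were treated for 48 h in serum-free induction medium containing 0.5% DMSO with test chemicals in eight-point half-log series up to 100 µM. For total lysis, wells received 0.1% Triton X. LDH in 50 µL spent medium was assayed by resorufin fluorescence with CytoTox-ONE. Percent cytotoxicity was normalized to the on-plate vehicle and total lysis controls, with duplicates averaged.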

Structure (SMILES) | LDH release cytotoxicity (0.03162 µM) | LDH release cytotoxicity (0.1 µM) | LDH release cytotoxicity (0.3162278 µM) | LDH release cytotoxicity (1 µM) | LDH release cytotoxicity (3.16228 µM) | LDH release cytotoxicity (10 µM) | LDH release cytotoxicity (31.6228 µM) | LDH release cytotoxicity (100 µM) | further results
COCCOCC(CC1(C(=O)NC2CCC(C(=O)O)CC2)CCCC1)C(=O)Oc1ccc2c(c1)CCC2 (stereo unspecified) [Candoxatril] | -0.831 ± 0.098% | -1.91 ± 0.43% | -0.642 ± 0.1% | -1.61 ± 0.11% | -1.03 ± 0.12% | -0.79 ± 0.29% | -0.798 ± 0.39% | 0.54 ± 0.26% | –
CCCCCCCCCCCCCCOS(=O)(=O)O [Sodium myristyl sulfate] | -2.12 ± 0.45% | -2.09 ± 0.56% | -2.4 ± 1.5% | -2.13 ± 0.48% | -2.25 ± 0.37% | -1.43 ± 0.37% | -1.69 ± 0.59% | 12.5 ± 6.7% | –
CCCCC(CC)COC(=O)c1ccc(C(=O)OCC(CC)CCCC)c(C(=O)OCC(CC)CCCC)c1 (stereo unspecified) [Tris(2-ethylhexyl) trimellitate] | -1.9 ± 0.9% | -0.779 ± 0.11% | -1.6 ± 0.82% | -0.598 ± 1.5% | -1.18 ± 0.4% | -0.738 ± 0.28% | -0.634 ± 0.44% | 5.97 ± 0.36% | –
CCCCCCCCCCCCCCC [Pentadecane] | -1.39 ± 0.28% | -0.5079 ± 0.0034% | -0.0639 ± 1.3% | -1.27 ± 1.5% | -0.987 ± 0.93% | -0.163 ± 0.94% | 0.517 ± 0.29% | 1.96 ± 1.3% | –
CCCCC(CC)COC(=O)CCCCC(=O)OCc1ccccc1 (stereo unspecified) [Benzyloctyl adipate] | -0.155 ± 0.27% | -0.43 ± 0.37% | 0.101 ± 0.76% | -0.128 ± 1.1% | 1.13 ± 0.71% | 0.566 ± 0.22% | 0.4 ± 0.39% | 1.95 ± 0.065% | –
COc1ccccc1N [2-Anisidine] | -1.27 ± 0.34% | -0.978 ± 0.2% | -0.111 ± 0.059% | -0.865 ± 1.6% | -1.04 ± 0.64% | 0.222 ± 0.33% | 0.835 ± 0.33% | 4.39 ± 0.47% | –
COCC(=O)N(c1c(C)cccc1C)C(C)C(=O)OC (stereo unspecified) [Metalaxyl] | -1.86 ± 0.61% | -0.811 ± 0.78% | -0.303 ± 0.27% | -0.996 ± 0.099% | -0.0482 ± 0.74% | -0.0413 ± 0.72% | 0.228 ± 0.89% | 2.83 ± 2.6% | –
CCN(C(=O)c1cc(C)cc(OCC(C)Nc2ccncc2)c1)C(C)C (stereo unspecified) | – | – | – | – | – | – | – | – | LDH release cytotoxicity (0.02135 µM): -1.12 ± 0.23%; LDH release cytotoxicity (0.0675 µM): -0.177 ± 0.3%; LDH release cytotoxicity (0.2134537 µM): -0.209 ± 0.26%; LDH release cytotoxicity (0.675 µM): 0.1 ± 0.83%; LDH release cytotoxicity (2.13454 µM): -0.21 ± 0.13%; LDH release cytotoxicity (6.75 µM): -0.0445 ± 0.25%; LDH release cytotoxicity (21.345374 µM): 0.884 ± 0.24%; LDH release cytotoxicity (67.5 µM): 19 ± 3.4%
CCc1nn(C2CCCCC2)c2cc(C3(C#N)CCC(C(=O)O)CC3)ccc12 (stereo unspecified) | -0.818 ± 0.12% | -1.01 ± 0.074% | -0.56 ± 0.022% | -1.9 ± 0.17% | -1.26 ± 0.43% | -1.43 ± 0.081% | 1.5 ± 0.88% | 7.65 ± 1.3% | –
CCC(C)c1ccccc1O (stereo unspecified) [2-(Butan-2-yl)phenol] | – | -1.12 ± 0.63% | – | -2.96 ± 1.4% | -3.27 ± 0.89% | -1.71 ± 1% | -1.22 ± 1.5% | 0.802 ± 0.9% | LDH release cytotoxicity (0.031623 µM): -0.239 ± 0.71%; LDH release cytotoxicity (0.316228 µM): -2.25 ± 1.2%
Cn1c(-c2ccccc2)cc(-c2ccccc2)[n+]1C [Difenzoquat metilsulfate] | -4.98 ± 0.42% | -4.55 ± 0.57% | -3.76 ± 0.46% | -4.22 ± 0.43% | -3.44 ± 0.93% | -3.6 ± 0.33% | -2.99 ± 2% | -1.18 ± 0.17% | –
O=C(O)c1ccccc1C(=O)OCc1ccccc1 [Monobenzyl phthalate] | -6.32 ± 1.2% | -7.14 ± 0.13% | -7.38 ± 0.78% | -7.25 ± 1% | -7.03 ± 0.21% | -6.25 ± 0.21% | -5.79 ± 1.9% | -5.73 ± 0.38% | –
CCc1nc(N)nc(N)c1-c1ccc(Cl)cc1 [Pyrimethamine] | -0.622 ± 0.53% | -0.806 ± 0.47% | 0.238 ± 0.62% | 0.679 ± 0.29% | 1.89 ± 0.15% | 4.04 ± 0.17% | 2.08 ± 0.49% | 14.2 ± 0.59% | –
CCCC(CCC)C(=O)O [Valproic acid] | – | -2.27 ± 0.28% | – | -2.73 ± 0.65% | -1.85 ± 0.16% | -2.14 ± 2% | -1.38 ± 0.12% | -0.176 ± 0.59% | LDH release cytotoxicity (0.031623 µM): -0.788 ± 0.37%; LDH release cytotoxicity (0.316228 µM): -1.27 ± 1.4%
OCC1OC2OC3C(CO)OC(OC4C(CO)OC(OC5C(CO)OC(OC6C(CO)OC(OC7C(CO)OC(OC1C(O)C2O)C(O)C7O)C(O)C6O)C(O)C5O)C(O)C4O)C(O)C3O (stereo not drawn) [alpha-Cyclodextrin] | – | – | – | – | – | – | – | – | LDH release cytotoxicity (0.016602 µM): -2.18 ± 0.47%; LDH release cytotoxicity (0.0525 µM): -2.3 ± 0.3%; LDH release cytotoxicity (0.16602 µM): -1.73 ± 1.5%; LDH release cytotoxicity (0.525 µM): -2.65 ± 2%; LDH release cytotoxicity (1.6602 µM): -2.1 ± 0.45%; LDH release cytotoxicity (5.25 µM): -1.71 ± 0.9%; LDH release cytotoxicity (16.601958 µM): -1.44 ± 0.78%; LDH release cytotoxicity (52.5 µM): 0.413 ± 1.5%
CCOCCO [2-Ethoxyethanol] | -0.38 ± 0.81% | 0.655 ± 1% | -0.174 ± 0.26% | 0.482 ± 0.056% | 0.0895 ± 0.63% | 0.267 ± 1.2% | 0.257 ± 0.32% | 1.46 ± 0.97% | –
Oc1ccccc1-c1ccccc1 [2-Phenylphenol] | – | – | – | – | – | – | – | – | LDH release cytotoxicity (0.0327296 µM): -1.34 ± 0.032%; LDH release cytotoxicity (0.1035 µM): -1.96 ± 0.059%; LDH release cytotoxicity (0.327296 µM): -0.0202 ± 0.57%; LDH release cytotoxicity (1.035 µM): -0.704 ± 0.57%; LDH release cytotoxicity (3.27296 µM): -1.21 ± 0.68%; LDH release cytotoxicity (10.35 µM): 0.0213 ± 0.73%; LDH release cytotoxicity (32.729574 µM): -0.237 ± 0.41%; LDH release cytotoxicity (103.5 µM): 0.858 ± 0.56%
